Assays:
FLO7 = target: T1, FLO7 (Oryza sativa, UniProt Q337M4); experiment: X-ray crystal structure at […] Å, soaked crystals; format: binding; details: active-site Ni(II); Arg64 binds the substrate
T1 construct: E. coli codon-optimized gene, expressed in E. coli BL21 (DE3), Ni-NTA purified
T1 sequence (Q337M4 48-364 limits assumed): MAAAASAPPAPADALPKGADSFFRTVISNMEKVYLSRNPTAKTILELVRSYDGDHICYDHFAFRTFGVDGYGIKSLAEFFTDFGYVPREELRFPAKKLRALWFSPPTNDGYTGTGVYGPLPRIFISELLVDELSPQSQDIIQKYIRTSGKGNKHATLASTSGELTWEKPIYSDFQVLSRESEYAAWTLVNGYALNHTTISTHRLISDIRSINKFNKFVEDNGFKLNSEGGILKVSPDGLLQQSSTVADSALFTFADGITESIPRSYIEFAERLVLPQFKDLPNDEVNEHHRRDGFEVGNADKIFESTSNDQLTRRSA

HglS = target: T2, HglS (Pseudomonas putida, UniProt Q88CC1); experiment: X-ray crystal structure, soaked crystals; format: binding; details: active-site Ni(II) (noncatalytic); 2OA carboxylate and alpha-keto group coordinate the metal, Arg74 salt bridge
T2 construct: recombinant in E. coli BL21 (DE3), Ni-NTA purified; crystals contain mainly active-site Ni(II); activity with Fe(II)
T2 sequence (Q88CC1 1-464): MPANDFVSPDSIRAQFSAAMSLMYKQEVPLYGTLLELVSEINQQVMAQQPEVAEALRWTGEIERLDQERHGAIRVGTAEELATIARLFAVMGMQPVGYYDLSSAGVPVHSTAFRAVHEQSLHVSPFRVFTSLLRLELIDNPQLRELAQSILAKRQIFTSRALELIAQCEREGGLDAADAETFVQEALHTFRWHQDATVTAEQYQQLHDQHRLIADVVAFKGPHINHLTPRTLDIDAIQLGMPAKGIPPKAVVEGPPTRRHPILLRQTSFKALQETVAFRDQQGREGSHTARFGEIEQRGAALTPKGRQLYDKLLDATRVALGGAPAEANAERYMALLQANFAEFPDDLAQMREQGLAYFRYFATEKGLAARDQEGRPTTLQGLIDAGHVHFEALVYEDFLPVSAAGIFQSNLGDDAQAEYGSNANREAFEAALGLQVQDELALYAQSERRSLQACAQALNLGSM

AT1G07040 = target: T3, AT1G07040 (Arabidopsis thaliana, UniProt Q9LMJ7); experiment: in vitro assay, product by high resolution LC-MS; format: biochemical; details: conversion to 2-hydroxyglutarate; N-terminal localization peptide removed
T3 construct: amplified from Arabidopsis cDNA, expressed in E. coli BL21 (DE3), Ni-NTA purified
T3 sequence (Q9LMJ7 51-371): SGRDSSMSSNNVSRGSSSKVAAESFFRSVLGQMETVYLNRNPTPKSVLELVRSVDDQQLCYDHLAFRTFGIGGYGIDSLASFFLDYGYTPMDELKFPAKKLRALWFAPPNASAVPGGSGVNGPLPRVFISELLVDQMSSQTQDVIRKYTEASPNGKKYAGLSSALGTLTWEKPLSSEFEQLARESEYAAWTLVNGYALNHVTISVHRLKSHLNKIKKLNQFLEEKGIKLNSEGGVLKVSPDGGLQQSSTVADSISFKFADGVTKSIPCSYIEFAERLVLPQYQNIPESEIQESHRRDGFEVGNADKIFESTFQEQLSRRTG

YdcJ = target: T4, YdcJ (Escherichia coli, UniProt P76097); experiment: in vitro assay, product by high resolution LC-MS; format: biochemical; details: conversion to 2-hydroxyglutarate
T4 construct: recombinant in E. coli BL21 (DE3), Ni-NTA purified
T4 sequence (P76097 1-447): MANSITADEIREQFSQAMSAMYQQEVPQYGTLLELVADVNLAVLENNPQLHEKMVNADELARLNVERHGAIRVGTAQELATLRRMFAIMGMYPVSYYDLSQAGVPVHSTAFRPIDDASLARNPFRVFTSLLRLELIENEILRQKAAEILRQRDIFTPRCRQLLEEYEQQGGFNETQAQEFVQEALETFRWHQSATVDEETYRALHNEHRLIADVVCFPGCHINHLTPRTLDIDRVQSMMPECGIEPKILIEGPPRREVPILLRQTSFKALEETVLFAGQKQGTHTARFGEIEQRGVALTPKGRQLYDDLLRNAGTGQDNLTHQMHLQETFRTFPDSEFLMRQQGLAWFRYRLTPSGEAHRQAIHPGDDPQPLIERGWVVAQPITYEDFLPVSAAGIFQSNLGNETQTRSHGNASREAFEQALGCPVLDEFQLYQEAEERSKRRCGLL

[1] = substrate: O=C(O)CCCC(=O)C(=O)O; experiment: initial rates of O2 consumption, Clark-type electrode; format: biochemical, Pseudomonas putida; details: 10 µM FeSO4, 100 mM Tris pH 7.0, room temperature, 240 µM O2, 10-200 µM 2OA, 100 nM enzyme
Description: initial rates of O2 consumption, Clark-type electrode on HglS | kinetic parameters determined by monitoring oxygen consumption were similar to those we previously reported

[2] = substrate: O=C(O)CCCC(=O)C(=O)O; experiment: steady-state kinetics of purified enzyme; format: biochemical, Oryza sativa; details: Fe(II)- and O2-dependent; N-terminal localization peptide removed

O=C(O)CCCC(=O)C(=O)O [2OA, 2-oxoadipate]
X-ray crystal structure at 1.85 Å, soaked crystals (FLO7): soaked with 2OA, producing diffraction data used to solve the substrate-bound crystal structure
X-ray crystal structure, soaked crystals (HglS): soaked HglS crystals with 2OA and solved the structure of the resulting complex
in vitro assay, product by high resolution LC-MS (AT1G07040): plant homologs AT1G07040 and FLO7 catalyzed the conversion of 2OA
in vitro assay, product by high resolution LC-MS (YdcJ): the E. coli homolog YdcJ and the plant homologs AT1G07040 and FLO7 catalyzed the conversion

B1: HglS (Pseudomonas putida KT2440) (protein)
chain: T2 sequence (Q88CC1 1-464)
notes: recombinant in E. coli BL21 (DE3), Ni-NTA purified; crystals contain mainly active-site Ni(II); activity with Fe(II)
Km [1]: 10 µM

B2: FLO7 (Oryza sativa Japonica Group) (protein)
chain: T1 sequence (Q337M4 48-364 limits assumed)
notes: E. coli codon-optimized gene, expressed in E. coli BL21 (DE3), Ni-NTA purified
Km [2]: 550 µM

Source: PMC7286885, “An iron (II) dependent oxygenase performs the last missing step of plant lysine catabolism” (Nature Communications, 2020)
